One test concerns TPC1. Briefly: Antiproliferative activity against human TPC1 cells expressing RET/PCT1 after 72 hrs by [3H]thymidine incorporation assay. Background: Uptake of a labelled nucleoside into DNA is a usual measure of proliferation.
Test [1] deals with Tyrosine-protein kinase ABL1 (Homo sapiens, UniProt P00519).
Description: Inhibition of human recombinant histidine-tagged ABL (230-517) expressed in Sf9 cells by ELISA
The nature of a further test: cells. The settings on record: Homo sapiens, LS174T.
The next test deals with ARO. In words: Antiproliferative activity against human RET deficient ARO cells after 72 hrs by [3H]thymidine incorporation assay.

Sequence of Tyrosine-protein kinase ABL1 (P00519 whole entry): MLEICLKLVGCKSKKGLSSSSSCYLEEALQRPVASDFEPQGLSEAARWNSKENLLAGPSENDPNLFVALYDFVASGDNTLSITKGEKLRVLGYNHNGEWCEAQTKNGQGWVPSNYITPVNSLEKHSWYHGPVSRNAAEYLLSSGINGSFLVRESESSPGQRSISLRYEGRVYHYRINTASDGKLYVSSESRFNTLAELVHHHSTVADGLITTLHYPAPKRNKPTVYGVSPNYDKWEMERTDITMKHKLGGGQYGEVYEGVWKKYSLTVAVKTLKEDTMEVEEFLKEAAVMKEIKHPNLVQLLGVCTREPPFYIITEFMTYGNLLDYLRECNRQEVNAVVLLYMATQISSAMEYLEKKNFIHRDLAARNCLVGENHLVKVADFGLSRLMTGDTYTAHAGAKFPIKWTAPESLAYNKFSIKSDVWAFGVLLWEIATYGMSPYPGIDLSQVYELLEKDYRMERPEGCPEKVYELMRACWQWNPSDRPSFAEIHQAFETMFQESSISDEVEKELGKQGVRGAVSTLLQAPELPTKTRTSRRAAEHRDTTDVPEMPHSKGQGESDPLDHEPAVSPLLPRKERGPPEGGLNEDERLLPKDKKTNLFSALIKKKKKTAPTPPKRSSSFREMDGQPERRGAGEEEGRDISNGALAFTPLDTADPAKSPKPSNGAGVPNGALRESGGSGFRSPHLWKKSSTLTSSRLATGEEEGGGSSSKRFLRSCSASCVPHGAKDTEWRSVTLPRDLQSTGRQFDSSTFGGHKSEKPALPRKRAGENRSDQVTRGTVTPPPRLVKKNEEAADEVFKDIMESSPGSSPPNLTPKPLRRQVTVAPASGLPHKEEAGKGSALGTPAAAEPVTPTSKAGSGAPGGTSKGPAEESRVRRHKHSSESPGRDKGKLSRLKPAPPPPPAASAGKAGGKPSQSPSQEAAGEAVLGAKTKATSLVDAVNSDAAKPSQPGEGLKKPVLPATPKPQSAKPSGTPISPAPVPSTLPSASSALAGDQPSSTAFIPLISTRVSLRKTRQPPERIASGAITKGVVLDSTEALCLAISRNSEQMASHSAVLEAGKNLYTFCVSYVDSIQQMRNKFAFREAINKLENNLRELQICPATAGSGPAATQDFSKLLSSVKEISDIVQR
Description for cells: Antiproliferative activity against human RET deficient LS 174T cells after 72 hrs by [3H]thymidine incorporation assay

As a reminder, the IC50 is the midpoint of a concentration-inhibition curve. A low value points to higher potency. In the case of `N#Cc1c(SCC(=O)c2ccccc2)nc2c(c1-c1ccsc1)CCCC2`, the IC50 in the test with TPC1 is over 300 µM; in test [1] it was over 150 µM; in “cells”, over 300 µM.

Take `N#Cc1c(SCc2ccccc2)nc2c(c1-c1cccs1)CCCC2`: the IC50 was 17 µM in the test with TPC1, 8.5 µM with ARO, 72 µM in test [1] and 6.2 µM in “cells”.

As to `N#Cc1c(N)nc(SCC(=O)c2ccccc2)c(C#N)c1-c1ccsc1`, the IC50 in the test with TPC1 is over 300 µM; in the test on ARO, over 300 µM; in test [1], 0.29 µM; in the test “cells”, over 300 µM.

On to `N#Cc1c(N)nc(SCC(=O)c2ccc(Cl)cc2)c(C#N)c1-c1ccsc1`, for which the IC50 amounted to 28 µM with TPC1, 159 µM with ARO, 60 µM in test [1] and 92 µM in “cells”.

Regarding `N#Cc1c(SCc2ccc(F)cc2)nc2c(c1-c1cccs1)CCCC2`, the IC50 in the test with TPC1 is 101 µM; with ARO, over 300 µM; in test [1], 74 µM; in “cells” it was over 300 µM.

As for `COc1cc2/c(=N/c3ccc(Br)cc3F)nc[nH]c2cc1OCC1CCN(C)CC1` [VANDETANIB], in the test with TPC1, half-maximal inhibition (IC50) was put at 0.116 µM. That is a sub-micromolar value.

Source of the values: ChEMBL document CHEMBL1177872, “Inhibitors of the RET tyrosine kinase based on a 2-(alkylsulfanyl)-4-(3-thienyl)nicotinonitrile scaffold” (Eur J Med Chem, 2010).
